Data published in publication PMC3432483 (Blood Cancer Journal, 2012).
Each block holds one compound with its values, some of them ahead of it.

How the values were obtained:
CDC-like kinase 1 (CLK1) = CDC-like kinase 1 (CLK1) (Homo sapiens, UniProt P49759); assay: Full dose-response kinase assay; type: biochemical
Plasma protein binding = type: in vitro ADME
[1] = test system: HeLa, ACHN and NCI-H69 cell lines; assay: FMCA cytotoxicity, solid tumor cell lines; type: cell-based, human; conditions: 72 h
MOLM-13 cells = assay: Alamar Blue cytotoxicity, MOLM-13 cells; type: cell-based; conditions: Homo sapiens, MOLM-13, read-out: cytotoxic activity IC50, MOLM-13
RPS6K = assay: 320-kinase panel screen, radiometric protein kinase assay, RPS6K; type: biochemical; conditions: 1 μM
primary AML cells [2] = assay: FMCA cytotoxicity, primary AML patient cells; type: cell-based, human
RPS6KA = assay: Full dose-response kinase assay; type: biochemical
MV4-11 cells [3] = assay: Apoptosis assay; type: cell-based, human; conditions: 10 μM, up to 48 h
AKT 1, 2, 3 = assay: AKT radiometric protein kinase assay; type: biochemical; conditions: 1 μM, 60 min
FGFR2 = FGFR2 (Homo sapiens, UniProt P21802); assay: biochemical
MV4-11 cells [4] = assay: Combination studies with cytarabine or daunorubicin
[5] = Pharmacokinetic studies in C57 black mice; type: in vivo, mouse
VEGFR2 = VEGFR2 (Homo sapiens, UniProt P35968); assay: Full dose-response kinase assay; type: biochemical
ERK 1, 2 = assay: ERK radiometric protein kinase assay; type: biochemical; conditions: 1 μM, 60 min
MV4-11 cells [6] = assay: Mouse hollow-fiber model, MV4-11; type: in vivo; conditions: NMRI male mice, 15 mg/kg s.c. twice daily, 6 days
CLK kinases = assay: 320-kinase panel screen, radiometric protein kinase assay, CLK kinases; type: biochemical; conditions: 1 μM, 60 min incubation
MV4-11 cells [7] = assay: FMCA cytotoxicity, MV4-11 cell line; type: cell-based, human
primary AML cells [8] = assay: Mouse hollow-fiber model, primary AML cells; type: in vivo; conditions: NMRI male mice, 15 mg/kg s.c. twice daily, 6 days

Chain of CDC-like kinase 1 (CLK1) (P49759 whole entry): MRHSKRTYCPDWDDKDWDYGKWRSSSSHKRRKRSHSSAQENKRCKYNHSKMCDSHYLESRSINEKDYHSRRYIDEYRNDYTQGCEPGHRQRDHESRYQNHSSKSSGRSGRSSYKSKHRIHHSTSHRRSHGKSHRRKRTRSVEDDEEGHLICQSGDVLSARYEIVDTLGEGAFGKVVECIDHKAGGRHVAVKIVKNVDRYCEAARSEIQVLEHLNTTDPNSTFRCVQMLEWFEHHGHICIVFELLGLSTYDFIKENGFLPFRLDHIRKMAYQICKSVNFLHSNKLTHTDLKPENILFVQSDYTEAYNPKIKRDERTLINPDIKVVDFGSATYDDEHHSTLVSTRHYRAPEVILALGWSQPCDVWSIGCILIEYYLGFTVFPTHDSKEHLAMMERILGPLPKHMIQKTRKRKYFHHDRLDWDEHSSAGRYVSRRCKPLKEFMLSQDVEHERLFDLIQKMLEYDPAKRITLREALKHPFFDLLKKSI
Chain of VEGFR2 (P35968 20-1356): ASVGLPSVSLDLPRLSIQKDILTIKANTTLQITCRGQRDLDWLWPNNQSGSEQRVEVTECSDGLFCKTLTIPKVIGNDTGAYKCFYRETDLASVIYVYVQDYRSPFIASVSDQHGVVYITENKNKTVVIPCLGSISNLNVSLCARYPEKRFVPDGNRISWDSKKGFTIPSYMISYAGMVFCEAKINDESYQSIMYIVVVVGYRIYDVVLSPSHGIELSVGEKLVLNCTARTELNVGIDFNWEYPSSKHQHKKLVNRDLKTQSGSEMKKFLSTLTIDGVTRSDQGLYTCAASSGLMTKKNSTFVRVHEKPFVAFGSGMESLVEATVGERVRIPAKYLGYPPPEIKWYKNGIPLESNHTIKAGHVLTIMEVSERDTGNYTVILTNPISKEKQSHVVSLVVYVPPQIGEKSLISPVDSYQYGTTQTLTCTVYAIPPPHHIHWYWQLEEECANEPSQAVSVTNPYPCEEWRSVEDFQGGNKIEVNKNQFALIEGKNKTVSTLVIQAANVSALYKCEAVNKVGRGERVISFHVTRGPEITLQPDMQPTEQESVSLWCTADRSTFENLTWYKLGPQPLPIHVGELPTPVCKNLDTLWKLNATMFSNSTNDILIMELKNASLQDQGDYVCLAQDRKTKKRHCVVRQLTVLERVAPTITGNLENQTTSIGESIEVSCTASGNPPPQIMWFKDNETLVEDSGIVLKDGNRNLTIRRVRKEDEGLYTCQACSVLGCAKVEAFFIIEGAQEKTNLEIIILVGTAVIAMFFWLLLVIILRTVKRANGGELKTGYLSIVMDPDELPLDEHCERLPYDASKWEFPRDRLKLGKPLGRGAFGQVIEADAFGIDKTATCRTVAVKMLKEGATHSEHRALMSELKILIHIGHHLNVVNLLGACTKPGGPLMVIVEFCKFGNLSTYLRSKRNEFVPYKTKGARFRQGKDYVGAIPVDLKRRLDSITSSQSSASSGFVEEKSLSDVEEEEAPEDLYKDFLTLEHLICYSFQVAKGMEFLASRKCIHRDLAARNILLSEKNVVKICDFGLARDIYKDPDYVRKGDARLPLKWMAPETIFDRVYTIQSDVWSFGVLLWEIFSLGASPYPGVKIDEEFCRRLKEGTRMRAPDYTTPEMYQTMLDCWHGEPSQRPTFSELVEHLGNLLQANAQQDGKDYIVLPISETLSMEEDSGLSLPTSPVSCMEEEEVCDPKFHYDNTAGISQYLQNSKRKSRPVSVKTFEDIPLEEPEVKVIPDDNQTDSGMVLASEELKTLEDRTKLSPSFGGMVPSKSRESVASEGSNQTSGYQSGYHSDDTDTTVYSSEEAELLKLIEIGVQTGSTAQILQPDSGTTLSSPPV
Chain of FGFR2 (P21802 22-821): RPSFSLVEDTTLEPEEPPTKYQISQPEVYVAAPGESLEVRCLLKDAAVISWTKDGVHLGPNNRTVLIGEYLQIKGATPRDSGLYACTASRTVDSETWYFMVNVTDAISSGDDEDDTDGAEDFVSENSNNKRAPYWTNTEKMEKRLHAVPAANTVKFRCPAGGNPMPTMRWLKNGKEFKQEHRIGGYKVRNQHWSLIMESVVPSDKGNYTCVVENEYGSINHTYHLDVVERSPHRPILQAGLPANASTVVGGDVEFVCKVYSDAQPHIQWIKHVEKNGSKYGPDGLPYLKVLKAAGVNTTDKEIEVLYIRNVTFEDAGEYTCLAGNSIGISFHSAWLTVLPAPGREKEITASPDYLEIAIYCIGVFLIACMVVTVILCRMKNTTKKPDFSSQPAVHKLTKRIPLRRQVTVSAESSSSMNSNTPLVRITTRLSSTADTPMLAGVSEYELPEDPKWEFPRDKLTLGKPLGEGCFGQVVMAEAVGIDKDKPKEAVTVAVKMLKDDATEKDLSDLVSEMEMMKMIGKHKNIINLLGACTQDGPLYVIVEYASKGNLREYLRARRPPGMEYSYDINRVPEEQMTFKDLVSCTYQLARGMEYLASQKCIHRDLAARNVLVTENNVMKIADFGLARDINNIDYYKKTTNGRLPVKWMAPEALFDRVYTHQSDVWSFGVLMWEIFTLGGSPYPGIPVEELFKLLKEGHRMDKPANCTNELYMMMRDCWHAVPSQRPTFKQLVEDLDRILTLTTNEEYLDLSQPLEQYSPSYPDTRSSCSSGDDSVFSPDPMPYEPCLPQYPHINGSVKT

IC50 (CDC-like kinase 1 (CLK1)): 140 nM
fraction unbound (Plasma protein binding): 0.035
remaining enzyme activity, RPS6K (RPS6K; 60 min incubation): Less than 20%
IC50 RPS6KA (RPS6KA): 220 nℳ nM
inhibition of AKT 1, 2, 3 (AKT 1, 2, 3): No direct inhibition
IC50 (FGFR2): 1200 nM
plasma target concentration ([5]; IC90 divided by fraction unbound): 1 to 3 µM
predicted exposure time above plasma target concentration ([5]; hollow-fiber experiment, twice daily, target 1–3 μM): 1 h
IC50 (VEGFR2): 520 nM
inhibition of ERK 1, 2 (ERK 1, 2): No direct inhibition
remaining enzyme activity, CLK kinases (CLK kinases): Less than 20%
SMILES: Nc1ncc(-c2ccncc2)nc1Nc1ccc2[nH]ccc2c1 [AKN-028, N-3-(1H-indol-5-yl)-5-pyridin-4-yl-pyrazine-2,3-diamine]
cytotoxic effect in solid tumor cell lines HeLa, ACHN and NCI-H69 [1]: Almost no effect
IC50 (MOLM-13 cells): < 50 nM
IC50 (primary AML cells [2]; Homo sapiens, read-out: mean IC50, primary AML samples, n=15 samples): 1000 nM
apoptosis / caspase 3 activation in MV4-11 (MV4-11 cells [3]): induced apoptosis by activation of caspase 3
drug interaction (mean combination index) with cytarabine (MV4-11 cells [4]; cytarabine simultaneously or 24 h before AKN-028, cytarabine:AKN-028 2.5:1): synergy
drug interaction (mean combination index) with daunorubicin (MV4-11 cells [4]; daunorubicin simultaneously or 24 h before AKN-028, daunorubicin:AKN-028 1:20): synergy
drug interaction (mean combination index) with cytarabine (MV4-11 cells [4]; pre-treated with AKN-028 24 h, followed by cytarabine): antagonism
drug interaction (mean combination index) with daunorubicin (MV4-11 cells [4]; pre-treated with AKN-028 24 h, followed by daunorubicin): antagonism
net growth in hollow fibers, MV4-11 (MV4-11 cells [6]): reduced the tumor mass
IC50 (MV4-11 cells [7]; Homo sapiens, MV4-11, 72 h, read-out: cytotoxic activity IC50, MV4-11): < 50 nM
net growth in hollow fibers, primary AML sample UPN25 (primary AML cells [8]): no significant inhibition
net growth in hollow fibers, primary AML sample UPN26 (primary AML cells [8]): inhibited net growth

inhibition of RPS6K in kinase-panel screen (RPS6K): did not inhibit
SMILES: CC(C)(C)c1cc(NC(=O)Nc2ccc(-c3cn4c(n3)sc3cc(OCCN5CCOCC5)ccc34)cc2)no1 [AC220, reference compound]
cytotoxic response in primary AML samples (primary AML cells [2]; FMCA, 11 additional AML patient samples (UPN 14-24)): varied considerably
cytotoxic efficacy in MV4-11 (MV4-11 cells [7]; FMCA dose-response): full efficacy
